Data on 42 molecules can be found in patent US20080015225A1, “Dimeric Piperidine Derivatives” (JANSSEN PHARMACEUTICA N.V., priority 2004, published 2008).

The subject of the experiment is chicken dorsal root ganglion (DRG) neurons. The experiment can be described thus: Neuronal viability assay (calcein-AM) in primary culture of chicken dorsal root ganglion neurons. The conditions noted are these: Gallus gallus, DRG neuron, 48 h; survival of chick embryonic day 10 DRG neurons after two days of incubation; calcein-AM fluorescence; 0% = no neurotrophic factor, 100% = 10 ng/ml NGF; pIC50 from dose response curves; read-out: [C1] DRG assay SCORE. The format is cell-based, chicken (White Leghorn chick embryos). An excerpt: This assay is based on a fluorimetric Calcein-AM measurement and addresses the functional response of neurons as a quantitative measure of survival.
Primary Culture of Chicken Dorsal Root Ganglion Neurons
Dorsal root ganglia were dissected from White Leghorn chick embryos at embryonic day 10 as described previously (Skaper S. D. and Varon S. (1986) Brain Research 389, 39-46). The ganglia were trypsinised and dissociated by mild trituration in a HBSS buffer supplemented with 0.6% glucose and 0.08% trypsin. To remove non-neuronal lo cells by differential attachment to culture plastic, the ganglionic cell suspension was diluted to 2.5×10^5 cells/ml and seeded on tissue culture plastic dishes at 10 ml per 100 mm dish. After 2 h preplating, unattached neurons were collected and resuspended into Basal Eagle Medium containing 10% FCS. To remove cell aggregates, the cell suspension was passed through a nylon mesh (50 μM) pore diameter. Neuron-enriched cell suspension was plated at 5×10^4 cells/ml into poly-L-ornithine (100 μg/ml) and laminine (1 μg/ml) coated multiwell 96 plates. Compounds were dissolved in dimethyl sulfoxide and kept as a stock at −20° C. NGF and compounds were diluted in the culture medium and added to the cells immediately after plating. The final concentration of dimethyl sulfoxide in the test medium was 0.1%. After two days of incubation, neuronal viability was assessed with calcein-AM.
Neuronal Viability Assay Using Calcein-AM
Neuronal viability assay using calcein AM was performed as previously described (Bozyczko-Coyne D., McKenna B. W., Connors T. J., and Neff N. T. (1993) Journal of Neuroscience Methods 50, 205-216). For the assay, calcein-AM was diluted in PBS to the final concentration (1 μM). For each experiment an aliquot of calcein-AM (1 mg/ml in DMSO stored at −20° C.) was thawed immediately before use. The medium was removed from the wells and replaced with the calcein-AM solution. Assay plates were incubated for 1 h at 37° C. in a humidified CO2 incubator. Following the incubation, reading was done in a Cytofluor II at an excitation wavelength of 485 nm and an emission wavelength of 530 nm. Each plate had control wells with no neurotrophic factor added (0% survival) and wells with 10 ng/ml NGF (100% survival).
The drugs to be tested were taken from a stock solution and tested at a final concentration ranging from […] to 3.10^−9M. From the thus obtained dose response curves, the pIC50 value was calculated and scored as follows; Score 1=pIC50 value <6, Score 2=pIC50 value in the range of 6 to 8, Score 3 =pIC50 value>8. (in this table NT stands for Not Tested).
As for `O=C(c1ccc(F)cc1)C1CCN(CC#CCN2CCC(C(=O)c3ccc(F)cc3)CC2)CC1` [Compound 1], the IC50 was less than 10 nM.
Then `c1ccc2c(c1)CCN2C1CCN(CCCCCCCCCCCCN2CCC(N3CCc4ccccc43)CC2)CC1` [Compound 2], with 10 to 1000 nM; and `O=C(NCCCCCCNC(=O)N1CCC(O)(c2cccc(C(F)(F)F)c2)C(O)C1)N1CCC(O)(c2cccc(C(F)(F)F)c2)C(O)C1` (stereo not drawn) [Compound 3], with 10 to 1000 nM.
In the case of `CC(C)(C)Cc1nc(C2CCN(C(=O)CCCCCC(=O)N3CCC(c4noc(CC(C)(C)C)n4)CC3)CC2)no1` [Compound 4], the IC50 was more than 1000 nM.
Then `O=S(=O)(c1ccc(Cc2ccc(S(=O)(=O)N3CCC(O)(c4cccnc4)CC3)cc2)cc1)N1CCC(O)(c2cccnc2)CC1` [Compound 5], with 10 to 1000 nM; and `O=S(=O)(c1ccc(Oc2ccc(S(=O)(=O)N3CCC(O)(c4ccc(Br)cc4)CC3)cc2)cc1)N1CCC(O)(c2ccc(Br)cc2)CC1` [Compound 6], with more than 1000 nM; and `O=C(CCCCCCCC(=O)N1CCC(O)(c2cccc(Cl)c2)CC1)N1CCC(O)(c2cccc(Cl)c2)CC1` [Compound 7], with more than 1000 nM.
As to `O=C(CCCCC(=O)N1CCC(OCc2cccc(C(F)(F)F)c2)CC1)N1CCC(OCc2cccc(C(F)(F)F)c2)CC1` [Compound 10], the IC50 was 10 to 1000 nM.
Then `O=C(CCCCCCC(=O)N1CCC(Oc2nc3ccccc3s2)CC1)N1CCC(Oc2nc3ccccc3s2)CC1` [Compound 11], with 10 to 1000 nM; and `O=C(CCCCCCC(=O)N1CCC(OCc2cccc(C(F)(F)F)c2)CC1)N1CCC(OCc2cccc(C(F)(F)F)c2)CC1` [Compound 12], with 10 to 1000 nM.
To `O=S(=O)(c1ccc(Cc2ccc(S(=O)(=O)N3CCC(O)(c4ccc(Cl)c(Cl)c4)CC3)cc2)cc1)N1CCC(O)(c2ccc(Cl)c(Cl)c2)CC1` [Compound 13] belongs more than 1000 nM.
To `O=S(=O)(c1ccc(Oc2ccc(S(=O)(=O)N3CCC(O)(c4ccc(Cl)c(Cl)c4)CC3)cc2)cc1)N1CCC(O)(c2ccc(Cl)c(Cl)c2)CC1` [Compound 14] belongs 10 to 1000 nM.
For the molecule `O=S(=O)(c1ccc(Oc2ccc(S(=O)(=O)N3CCC(O)(c4cccc(Cl)c4)CC3)cc2)cc1)N1CCC(O)(c2cccc(Cl)c2)CC1` [Compound 15], the IC50 is 10 to 1000 nM.
To `O=S(=O)(c1ccc(Oc2ccc(S(=O)(=O)N3CCC(O)(c4ccc(Cl)cc4)CC3)cc2)cc1)N1CCC(O)(c2ccc(Cl)cc2)CC1` [Compound 16] belongs 10 to 1000 nM.
In the case of `C(#CCN1CCC(c2c[nH]c3ccccc23)CC1)CN1CCC(c2c[nH]c3ccccc23)CC1` [Compound 17], the IC50 is 10 to 1000 nM.
In the case of `OC(CN1CCC(O)(c2cccc(C(F)(F)F)c2)C(O)C1)CN1CCC(O)(c2cccc(C(F)(F)F)c2)C(O)C1` (stereo not drawn) [Compound 18], the IC50 is 10 to 1000 nM.
As for `OC(CN1CCC(O)(c2ccc(Cl)cc2)CC1)CN1CCC(O)(c2ccc(Cl)cc2)CC1` [Compound 19], the IC50 is 10 to 1000 nM.
As for `O=C(CCCCCCCC(=O)N1CCC(O)(c2ccc(Cl)c(C(F)(F)F)c2)CC1)N1CCC(O)(c2ccc(Cl)c(C(F)(F)F)c2)CC1` [Compound 20], the IC50 was 10 to 1000 nM.
To `O=C(c1cccc(C(=O)N2CCC(O)(c3ccc(Cl)c(C(F)(F)F)c3)CC2)c1)N1CCC(O)(c2ccc(Cl)c(C(F)(F)F)c2)CC1` [Compound 21] belongs 10 to 1000 nM; to `O=C(CCCCCCCC(=O)N1CCC(O)(c2ccc(Cl)c(Cl)c2)CC1)N1CCC(O)(c2ccc(Cl)c(Cl)c2)CC1` [Compound 22], more than 1000 nM.
Consider `O=C(c1ccc(Cl)cc1)C1CCN(C(=O)CCCCCCCC(=O)N2CCC(C(=O)c3ccc(Cl)cc3)CC2)CC1` [Compound 23], for which the IC50 was 10 to 1000 nM.
For `O=C(c1ccc(Cl)cc1)C1CCN(C(=O)CCCCC(=O)N2CCC(C(=O)c3ccc(Cl)cc3)CC2)CC1` [Compound 24], the IC50 was 10 to 1000 nM.
Turning to `O=C(CCCCC(=O)N1CCC(O)(c2ccc(Cl)c(C(F)(F)F)c2)CC1)N1CCC(O)(c2ccc(Cl)c(C(F)(F)F)c2)CC1` [Compound 25], the IC50 is more than 1000 nM.
`OC1(c2ccc(Cl)cc2)CCN(CC#CCN2CCC(O)(c3ccc(Cl)cc3)CC2)CC1` [Compound 26]: the IC50 was less than 10 nM.
Take `COc1cc2nc(NCC3CCN(C(=O)NCCCCCCNC(=O)N4CCC(CNc5nc6cc(OC)c(OC)cc6s5)CC4)CC3)sc2cc1OC` [Compound 27]: the IC50 is 10 to 1000 nM.
For `O=C(NCCCCCCNC(=O)N1CCC(O)(c2ccc(Cl)cc2)CC1)N1CCC(O)(c2ccc(Cl)cc2)CC1` [Compound 28], the IC50 is 10 to 1000 nM.
Consider `O=C(NCCCCCCNC(=O)N1CCC(Cc2c[nH]c3ccccc23)CC1)N1CCC(Cc2c[nH]c3ccccc23)CC1` [Compound 29], for which the IC50 is 10 to 1000 nM.
With `O=C(NCCCCCCNC(=O)N1CCC(c2noc3cc(F)ccc23)CC1)N1CCC(c2noc3cc(F)ccc23)CC1` [Compound 30], the IC50 is 10 to 1000 nM.
As for `O=C(Nc1ccc(Cc2ccc(NC(=O)N3CCC(O)(c4ccc(F)cc4)CC3)cc2)cc1)N1CCC(O)(c2ccc(F)cc2)CC1` [Compound 32], the IC50 is more than 1000 nM.
Take `O=C(Nc1ccc(NC(=O)N2CCC(O)(c3cccc(C(F)(F)F)c3)CC2)cc1)N1CCC(O)(c2cccc(C(F)(F)F)c2)CC1` [Compound 33]: the IC50 was 10 to 1000 nM.
Take `O=C(Nc1ccc(NC(=O)N2CCC(O)(c3ccc(Cl)c(C(F)(F)F)c3)CC2)cc1)N1CCC(O)(c2ccc(Cl)c(C(F)(F)F)c2)CC1` [Compound 34]: the IC50 was 10 to 1000 nM.
For the molecule `O=C(NCCCCCCNC(=O)N1CCC(Cc2nc3ccccc3s2)CC1)N1CCC(Cc2nc3ccccc3s2)CC1` [Compound 36], the IC50 is 10 to 1000 nM.
For `O=C(c1cccc(C(F)(F)F)c1)C1CCN(C(=O)NCCCCNC(=O)N2CCC(C(=O)c3cccc(C(F)(F)F)c3)CC2)CC1` [Compound 38], the IC50 was 10 to 1000 nM.
Then `c1ccc2c(CC3CCN(CCCN4CCC(Cc5c[nH]c6ccccc56)CC4)CC3)c[nH]c2c1` [Compound 39], with 10 to 1000 nM; and `Fc1ccc2c(C3CCN(CC#CCN4CCC(c5noc6cc(F)ccc56)CC4)CC3)noc2c1` [Compound 40], with 10 to 1000 nM.
Then `COc1ccc(-c2noc(C3CCN(C(=O)c4ccc(-c5ccc(C(=O)N6CCC(c7nc(-c8ccc(OC)c(OC9CCCC9)c8)no7)CC6)cc5)cc4)CC3)n2)cc1OC1CCCC1` [Compound 41], with 10 to 1000 nM; and `O=C(CCCCCCCC(=O)N1CCC(c2noc3cc(F)ccc23)CC1)N1CCC(c2noc3cc(F)ccc23)CC1` [Compound 42], with 10 to 1000 nM; and `O=C(c1cccc(C(=O)N2CCC(O)(c3ccc(Cl)c(Cl)c3)CC2)c1)N1CCC(O)(c2ccc(Cl)c(Cl)c2)CC1` [Compound 43], with more than 1000 nM.
Consider `O=C(c1cccc(C(=O)N2CCC(O)(c3cccc(C(F)(F)F)c3)CC2)c1)N1CCC(O)(c2cccc(C(F)(F)F)c2)CC1` [Compound 44], for which the IC50 is more than 1000 nM.
Take `O=C(c1ccc(F)cc1)C1CCN(C(=O)CCCCCCCC(=O)N2CCC(C(=O)c3ccc(F)cc3)CC2)CC1` [Compound 45]: the IC50 was more than 1000 nM.
Regarding `OC1(c2ccc(Cl)c(Cl)c2)CCN(CC#CCN2CCC(O)(c3ccc(Cl)c(Cl)c3)CC2)CC1` [Compound 47], the IC50 was 10 to 1000 nM.
To `O=C(NCCCCCCNC(=O)N1CCC(O)(c2ccc(Cl)c(C(F)(F)F)c2)CC1)N1CCC(O)(c2ccc(Cl)c(C(F)(F)F)c2)CC1` [Compound 48] belongs 10 to 1000 nM.
